molecular target: T1, Full-length USP19 (Homo sapiens, UniProt O94966); test: USP19 fluorescence polarisation (FP) homogeneous assay with Ubiquitin-Lys-TAMRA substrate; type: biochemical; settings: 2.5 nM USP19, 30 min pre-incubation, average of at least two duplicate experiments
T1 construct: Full-length USP19 was purchased from Boston Biochem (E-576); purchased Boston Biochem E-576
T1 sequence (O94966 1-1318): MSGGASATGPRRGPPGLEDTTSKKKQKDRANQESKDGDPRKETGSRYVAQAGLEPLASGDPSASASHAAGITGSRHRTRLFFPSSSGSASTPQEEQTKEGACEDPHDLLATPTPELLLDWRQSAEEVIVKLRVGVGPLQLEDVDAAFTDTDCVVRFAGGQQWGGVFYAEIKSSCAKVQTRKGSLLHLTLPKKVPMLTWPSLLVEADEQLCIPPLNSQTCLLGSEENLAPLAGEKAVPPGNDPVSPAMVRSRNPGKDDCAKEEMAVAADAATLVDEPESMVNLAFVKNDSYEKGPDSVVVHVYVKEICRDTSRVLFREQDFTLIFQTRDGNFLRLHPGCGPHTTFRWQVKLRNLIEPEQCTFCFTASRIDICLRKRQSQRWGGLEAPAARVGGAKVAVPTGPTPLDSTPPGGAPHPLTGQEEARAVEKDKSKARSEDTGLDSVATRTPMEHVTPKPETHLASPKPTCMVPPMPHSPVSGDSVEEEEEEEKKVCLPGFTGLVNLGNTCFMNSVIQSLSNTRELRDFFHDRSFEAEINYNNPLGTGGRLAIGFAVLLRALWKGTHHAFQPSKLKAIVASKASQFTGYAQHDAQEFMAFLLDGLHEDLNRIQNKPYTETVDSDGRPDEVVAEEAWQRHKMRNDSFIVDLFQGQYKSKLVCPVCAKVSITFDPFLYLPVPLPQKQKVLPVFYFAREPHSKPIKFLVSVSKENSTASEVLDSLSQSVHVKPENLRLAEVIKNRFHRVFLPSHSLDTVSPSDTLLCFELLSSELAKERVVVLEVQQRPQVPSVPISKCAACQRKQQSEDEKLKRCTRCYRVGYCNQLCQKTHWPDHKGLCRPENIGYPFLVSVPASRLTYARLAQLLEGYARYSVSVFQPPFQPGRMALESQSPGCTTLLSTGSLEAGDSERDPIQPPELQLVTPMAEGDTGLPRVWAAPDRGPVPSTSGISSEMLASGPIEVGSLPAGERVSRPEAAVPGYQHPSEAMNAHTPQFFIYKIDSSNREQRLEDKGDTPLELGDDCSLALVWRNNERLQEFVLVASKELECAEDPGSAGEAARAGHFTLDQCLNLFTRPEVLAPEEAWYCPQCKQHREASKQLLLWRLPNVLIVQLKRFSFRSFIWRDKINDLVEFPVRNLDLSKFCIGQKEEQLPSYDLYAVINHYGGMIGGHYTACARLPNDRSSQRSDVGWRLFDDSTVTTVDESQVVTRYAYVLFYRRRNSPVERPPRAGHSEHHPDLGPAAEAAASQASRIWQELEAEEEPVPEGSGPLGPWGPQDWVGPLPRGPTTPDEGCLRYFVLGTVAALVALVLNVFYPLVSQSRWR
Procedure: Unless otherwise stated, all other reagents were purchased from Sigma. Enzymatic reactions were conducted in black flat bottom polystyrene 384-well plates (Nunc) and 30 μL total volume. […] Inhibitors were stored as 10 mM DMSO stocks in an inert environment (low humidity, dark, low oxygen, room temperature) using the Storage Pod System and serial dilutions were prepared in buffer just prior to the assay (from 200 μM to 2 μM, 8-18 data point curve).
Following incubation at RT for 30 min, the enzymatic reactions were initiated by dispensing the Ub substrate (500 nM, 10 μL). FP was measured every 15 min over a period of 90 min (within the linear range of the assay) using a Synergy 4 plate reader (BioTek) exciting at 530 nm and measuring the amount of parallel and perpendicular light at 575 nm. The FP signal was subsequently normalised to the no compound control.

Q: Which IC50 does the source give for `Cn1cc(-c2cc(=O)n(C[C@]3(O)CCN(C(=O)N4CCOC[C@H]4c4ccccc4)CC34CCCC4)cn2)cn1` [Example 225, 3-(((S)-10-Hydroxy-7-((R)-3-phenylmorpholine-4-carbonyl)-7-azaspiro[4.5]decan-10-yl)methyl)-6-(1-methyl-1H-pyrazol-4-yl)pyrimidin-4(3H)-one] here?
A: Its IC50 is under 0.5 µM.

Q: How did the IC50 turn out when `C[C@H](CC1CCCCC1)C(=O)N1CCC(O)(CN2CCN(C(=O)OC(C)(C)C)CC2=O)C2(CCCC2)C1` (stereo partly drawn) [Example 38, tert-Butyl 4-((7-((R)-3-cyclohexyl-2-methylpropanoyl)-10-hydroxy-7-azaspiro[4.5]decan-10-yl)methyl)-3-oxopiperazine-1-carboxylate] was run?
A: Its IC50 is under 0.5 µM.

Q: With `O=C(N1CC[C@@](O)(Cn2cnc(-c3cccc(F)c3)cc2=O)C2(CCCC2)C1)N1CCNC[C@H]1c1ccccc1` [Example 315, 6-(3-Fluorophenyl)-3-(((S)-10-hydroxy-7-((R)-2-phenylpiperazine-1-carbonyl)-7-azaspiro[4.5]decan-10-yl)methyl)pyrimidin-4(3H)-one] as the compound, how does the IC50 read?
A: Its IC50 is under 0.5 µM.

Q: Which IC50 does the source give for `COc1c(F)cccc1-c1cc(=O)n(C[C@]2(O)CCN(C(=O)N3CCNC[C@H]3c3ccccc3)CC23CCCC3)cn1` [Example 383, 6-(3-Fluoro-2-methoxyphenyl)-3-(((S)-10-hydroxy-7-((R)-2-phenyl-piperazine-1-carbonyl)-7-aza-spiro[4.5]decan-10-yl)methyl)pyrimidin-4(3H)-one] here?
A: Its IC50 is under 0.5 µM.

Q: For `CSc1ncc2c(=O)n(CC3(O)CCN(C(=O)[C@H](C)CC4CCCCC4)CC34CCCC4)cnc2n1` (stereo partly drawn) [Example 160, 3-((7-((R)-3-Cyclohexyl-2-methylpropanoyl)-10-hydroxy-7-azaspiro[4.5]decan-10-yl)methyl)-7-(methylthio)pyrimido[4,5-d]pyrimidin-4(3H)-one], which IC50 is on record?
A: The IC50 was under 0.5 µM.

Q: For `O=C(NCC1=CCCOC1)N1CCC(O)(Cn2cnc(-c3ccccc3)cc2=O)C2(CCCC2)C1` (stereo not shown) [Example 259, N-((5,6-Dihydro-2H-pyran-3-yl)methyl)-10-hydroxy-10-((6-oxo-4-phenylpyrimidin-1(6H)-yl)methyl)-7-azaspiro[4.5]decane-7-carboxamide], which IC50 is on record?
A: The IC50 was 5 to 50 µM.

Q: `O=C(N1CCC(O)(Cn2cnc(-c3ccccc3)cc2=O)C2(CCOCC2)C1)N1CCNC[C@H]1c1ccccc1` (stereo partly drawn) [Example 321, 3-((5-Hydroxy-2-((R)-2-phenylpiperazine-1-carbonyl)-9-oxa-2-azaspiro[5.5]undecan-5-yl)methyl)-6-phenylpyrimidin-4(3H)-one] was tested. Which IC50 did it give?
A: Its IC50 is under 0.5 µM.

Q: With `O=C(N1CC[C@@](O)(Cn2cnc(C3CC3)cc2=O)C2(CCCC2)C1)N1CCNC[C@H]1c1ccccc1` [Example 292, 6-Cyclopropyl-3-(((S)-10-hydroxy-7-((R)-2-phenylpiperazine-1-carbonyl)-7-azaspiro[4.5]decan-10-yl)methyl)pyrimidin-4(3H)-one] as the compound, how does the IC50 read?
A: Its IC50 is under 0.5 µM.

Q: For `O=C(N1CC[C@@](O)(Cn2cnc(-c3ccccc3)cc2=O)C2(CCCC2)C1)N1CCNCC1c1ccsc1` (stereo partly drawn) [Example 337, 3-(((10S)-10-Hydroxy-7-(2-(thiophen-3-yl)piperazine-1-carbonyl)-7-azaspiro[4.5]decan-10-yl)methyl)-6-phenylpyrimidin-4(3H)-one], which IC50 is on record?
A: Its IC50 is under 0.5 µM.

Q: For `COc1ccccc1C1CNCCN1C(=O)N1CCC(O)(Cn2cnc(-c3ccccc3)cc2=O)C2(CCCC2)C1` (stereo not shown) [Example 271, 3-((10-Hydroxy-7-(2-(2-methoxyphenyl)piperazine-1-carbonyl)-7-azaspiro[4.5]decan-10-yl)methyl)-6-phenylpyrimidin-4(3H)-one], which IC50 is on record?
A: The IC50 was 50 to 250 µM.

Q: How did the IC50 turn out when `C[C@H](CC1CCCCC1)C(=O)N1CCC(O)(CN2Cc3ccccc3C2=O)C(C)(C)C1` (stereo partly drawn) [Example 27, 2-((1-((R)-3-Cyclohexyl-2-methylpropanoyl)-4-hydroxy-3,3-dimethylpiperidin-4-yl)methyl)isoindolin-1-one] was run?
A: Its IC50 is 5 to 50 µM.

Q: With `O=C(NCc1ccccn1)N1CCC(O)(Cn2cnc(-c3ccccc3)cc2=O)C2(CCCC2)C1` (stereo not shown) [Example 197, 10-Hydroxy-10-((6-oxo-4-phenylpyrimidin-1(6H)-yl)methyl)-N-(pyridin-2-ylmethyl)-7-azaspiro[4.5]decane-7-carboxamide] as the compound, how does the IC50 read?
A: Its IC50 is 50 to 250 µM.

Q: How did the IC50 turn out when `C[C@H](CC(F)(F)F)C(=O)N1CCC(O)(Cn2ccc3nc(N=S(C)(C)=O)ncc3c2=O)C2(CCCC2)C1` (stereo partly drawn) [Example 62, 2-((Dimethyl(oxo)-λ^6-sulfaneylidene)amino)-6-((10-hydroxy-7-((R)-4,4,4-trifluoro-2-methylbutanoyl)-7-azaspiro[4.5]decan-10-yl)methyl)pyrido[4,3-d]pyrimidin-5(6H)-one] was run?
A: The IC50 was 0.5 to 5 µM.

Q: Which IC50 does the source give for `O=C(N1CC[C@@](O)(Cn2cnc(N3CCC(F)(F)CC3)cc2=O)C2(CCCC2)C1)N1CCNC[C@H]1c1ccccc1` [Example 351, 6-(4,4-Difluoro-piperidin-1-yl)-3-(((S)-10-hydroxy-7-((R)-2-phenylpiperazine-1-carbonyl)-7-aza-spiro[4.5]decan-10-yl)methyl)pyrimidin-4(3H)-one] here?
A: The IC50 was under 0.5 µM.

Q: Which IC50 does the source give for `CN(Cc1cccnc1)C(=O)N1CCC(O)(Cn2cnc(-c3ccccc3)cc2=O)C2(CCCC2)C1` (stereo not shown) [Example 244, 10-Hydroxy-N-methyl-10-((6-oxo-4-phenylpyrimidin-1(6H)-yl)methyl)-N-(pyridin-3-ylmethyl)-7-azaspiro[4.5]decane-7-carboxamide] here?
A: The IC50 was 5 to 50 µM.

Q: Which IC50 does the source give for `CN(C)C(=O)c1cn(CC2(O)CCN(C(=O)N(C)Cc3ccccc3)CC23CCCC3)c(=O)cc1-c1ccccc1` (stereo not shown) [Example 87, N-Benzyl-10-((5-(dimethylcarbamoyl)-2-oxo-4-phenylpyridin-1(2H)-yl)methyl)-10-hydroxy-N-methyl-7-azaspiro[4.5]decane-7-carboxamide] here?
A: Its IC50 is under 0.5 µM.

Q: For `O=C(NCc1ccccc1F)N1CCC(O)(Cn2cnc(-c3ccccc3)cc2=O)C2(CCCC2)C1` (stereo not shown) [Example 254, N-(2-Fluorobenzyl)-10-hydroxy-10-((6-oxo-4-phenylpyrimidin-1(6H)-yl)methyl)-7-azaspiro[4.5]decane-7-carboxamide], which IC50 is on record?
A: Its IC50 is under 0.5 µM.

Q: With `Cn1ccc(-c2cc(=O)n(C[C@]3(O)CCN(C(=O)N4CCNC[C@H]4c4ccccc4)CC34CCCC4)cn2)n1` [Example 371, 3-(((S)-10-Hydroxy-7-((R)-2-phenylpiperazine-1-carbonyl)-7-aza-spiro[4.5]decan-10-yl)methyl)-6-(1-methyl-1H-pyrazol-3-yl)pyrimidin-4(3H)-one] as the compound, how does the IC50 read?
A: The IC50 was under 0.5 µM.

Q: With `COc1ccccc1-c1cc(=O)n(C[C@]2(O)CCN(C(=O)N3CCNC[C@H]3c3cc(F)ccc3F)CC23CCCC3)cn1` [Example 388, 3-(((S)-7-((R)-2-(2,5-Difluoro-phenyl)piperazine-1-carbonyl)-10-hydroxy-7-azaspiro [4.5]decan-10-yl)methyl)-6-(2-meth-oxyphenyl)pyrimi-din-4(3H)-one] as the compound, how does the IC50 read?
A: Its IC50 is under 0.5 µM.

Q: With `O=C(N1CCC(O)(Cn2cnc(-c3ccccc3)cc2=O)C2(CCCC2)C1)N1CCNCC1C1CC1` (stereo not shown) [Example 275, 3-((7-(2-Cyclopropylpiperazine-1-carbonyl)-10-hydroxy-7-azaspiro[4.5]decan-10-yl)methyl)-6-phenylpyrimidin-4(3H)-one] as the compound, how does the IC50 read?
A: The IC50 was 5 to 50 µM.

Q: How did the IC50 turn out when `Cn1cc(-c2ccn(C[C@]3(O)CCN(C(=O)N4CCNC[C@H]4c4ccccc4)CC34CCCC4)c(=O)c2)cn1` [Example 329, 1-(((S)-10-Hydroxy-7-((R)-2-phenylpiperazine-1-carbonyl)-7-azaspiro[4.5]decan-10-yl)methyl)-4-(1-methyl-1H-pyrazol-4-yl)pyridin-2(1H)-one] was run?
A: The IC50 was under 0.5 µM.

Q: `O=C(N1CC[C@@](O)(Cn2cnc(-c3ccccc3OC(F)(F)F)cc2=O)C2(CCCC2)C1)N1CCNC[C@H]1c1ccccc1` [Example 354, 3-(((S)-10-Hydroxy-7-((R)-2-phenylpiperazine-1-carbonyl)-7-azaspiro[4.5]decan-10-yl)methyl)-6-(2-(trifluorometh-oxy)phenyl) pyrimidin-4(3H)-one] was tested. Which IC50 did it give?
A: The IC50 was under 0.5 µM.

From patent US20220033397A1, “PHARMACEUTICAL COMPOUNDS AND THEIR USE AS INHIBITORS OF UBIQUITIN SPECIFIC PROTEASE 19 (USP19)” (ALMAC DISCOVERY LIMITED, priority 2018, published 2022)
